Results published in ChEMBL document CHEMBL4373740, “Synthesis and biological evaluation of new MET inhibitors with 1,6-naphthyridinone scaffold” (Eur J Med Chem, 2020).

What was measured:
[1] = species: Homo sapiens; assay: Selectivity index, ratio of IC50 for purified recombinant VEGFR2 kinase domain (unknown origin) to IC50 for purified recombinant MET kinase domain (unknown origin)
[2] = molecular target: T1, Macrophage-stimulating protein receptor (Homo sapiens, UniProt Q04912); assay: Inhibition of recombinant human GST-tagged RON expressed in baculovirus system using biotin as substrate preincubated for 5 mins followed by substrate addition and measured after 30 to 60 mins in presence of ATP by HTRF assay
T1 sequence (Q04912 25-304 limits assumed): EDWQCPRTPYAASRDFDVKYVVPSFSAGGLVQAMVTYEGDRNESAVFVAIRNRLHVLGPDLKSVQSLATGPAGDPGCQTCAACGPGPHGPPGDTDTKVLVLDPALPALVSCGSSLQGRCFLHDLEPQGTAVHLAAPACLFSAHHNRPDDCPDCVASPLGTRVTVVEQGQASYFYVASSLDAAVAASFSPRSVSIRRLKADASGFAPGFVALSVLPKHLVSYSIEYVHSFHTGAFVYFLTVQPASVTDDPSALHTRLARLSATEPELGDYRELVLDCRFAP
T1 sequence (Q04912 310-1400 limits assumed): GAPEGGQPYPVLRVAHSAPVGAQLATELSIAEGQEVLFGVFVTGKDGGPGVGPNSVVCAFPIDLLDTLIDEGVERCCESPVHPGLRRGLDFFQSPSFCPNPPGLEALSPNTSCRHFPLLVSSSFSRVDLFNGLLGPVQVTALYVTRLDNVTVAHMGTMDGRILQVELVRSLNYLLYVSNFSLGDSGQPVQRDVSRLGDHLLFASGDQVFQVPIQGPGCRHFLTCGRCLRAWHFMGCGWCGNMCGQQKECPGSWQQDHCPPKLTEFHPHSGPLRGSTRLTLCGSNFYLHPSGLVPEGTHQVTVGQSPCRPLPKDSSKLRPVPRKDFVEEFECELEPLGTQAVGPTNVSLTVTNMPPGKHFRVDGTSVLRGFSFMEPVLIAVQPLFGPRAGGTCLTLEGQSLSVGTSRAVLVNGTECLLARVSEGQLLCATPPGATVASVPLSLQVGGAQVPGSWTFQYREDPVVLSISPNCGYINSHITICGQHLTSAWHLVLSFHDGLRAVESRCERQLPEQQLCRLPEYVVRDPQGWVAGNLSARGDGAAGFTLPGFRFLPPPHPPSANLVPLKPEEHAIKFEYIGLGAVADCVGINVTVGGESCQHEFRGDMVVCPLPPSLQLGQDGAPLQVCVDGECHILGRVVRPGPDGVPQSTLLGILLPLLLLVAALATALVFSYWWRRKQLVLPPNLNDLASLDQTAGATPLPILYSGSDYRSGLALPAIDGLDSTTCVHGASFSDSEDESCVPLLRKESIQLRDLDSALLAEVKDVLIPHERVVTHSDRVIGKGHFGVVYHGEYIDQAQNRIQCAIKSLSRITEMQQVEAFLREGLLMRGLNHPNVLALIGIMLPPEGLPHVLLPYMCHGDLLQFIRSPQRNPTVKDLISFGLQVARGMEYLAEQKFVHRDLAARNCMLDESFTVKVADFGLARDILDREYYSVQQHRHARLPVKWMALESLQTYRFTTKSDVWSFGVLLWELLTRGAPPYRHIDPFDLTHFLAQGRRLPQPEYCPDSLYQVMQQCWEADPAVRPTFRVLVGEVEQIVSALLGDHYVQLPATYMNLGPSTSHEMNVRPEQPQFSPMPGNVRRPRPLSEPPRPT

[3] = molecular target: T2, High affinity nerve growth factor receptor (Homo sapiens, UniProt P04629); assay: (§1) Inhibition of recombinant human His-tagged TRKA catalytic domain (441 to 796 residues) expressed in baculovirus expression system using biotin as substrate preincubated for 5 mins followed by substrate addition and measured after 30 to 60 mins in presence of ATP by HTRF assay
[4] = molecular target: Tyrosine-protein kinase receptor TYRO3 (Homo sapiens, UniProt Q06418); assay: Inhibition of recombinant human GST-tagged RSE catalytic domain (451 to 890 residues) expressed in baculovirus expression system using biotin as substrate preincubated for 5 mins followed by substrate addition and measured after 30 to 60 mins in presence of ATP by HTRF assay
[5] = test system: HT-29; assay: Antiproliferative activity against human HT-29 cells at 10 uM incubated for 72 hrs by MTT assay relative to control; assay type: functional; conditions: HT-29, 72 h
[6] = Half life in Sprague-Dawley rat at 1.0 mg/kg, iv measured for 5 min to 72 hrs by LC-MS/MS analysis; assay type: ADME, organism-based; conditions: in vivo
[7] = Mean residence time in Sprague-Dawley rat at 1.0 mg/kg, iv measured for 5 min to 72 hrs by LC-MS/MS analysis; assay type: ADME, organism-based; conditions: in vivo
[8] = Mean residence time in Sprague-Dawley rat at 5.0 mg/kg, ig measured for 15 min to 72 hrs by LC-MS/MS analysis; assay type: ADME, organism-based; conditions: in vivo, po
[9] = molecular target: Tyrosine-protein kinase receptor UFO (Homo sapiens) (UniProt P30530); assay: (§2) Inhibition of recombinant full length human N-terminal GST-tagged AXL (473 to end residues) expressed in baculovirus infected Sf21 insect cells at 1 uM using biotin as substrate preincubated for 5 mins followed by substrate addition and measured after 30 to 60 mins in presence of ATP by HTRF assay relative to control
Chain of Tyrosine-protein kinase receptor UFO (Homo sapiens) (P30530 whole entry, the tested form may be a part): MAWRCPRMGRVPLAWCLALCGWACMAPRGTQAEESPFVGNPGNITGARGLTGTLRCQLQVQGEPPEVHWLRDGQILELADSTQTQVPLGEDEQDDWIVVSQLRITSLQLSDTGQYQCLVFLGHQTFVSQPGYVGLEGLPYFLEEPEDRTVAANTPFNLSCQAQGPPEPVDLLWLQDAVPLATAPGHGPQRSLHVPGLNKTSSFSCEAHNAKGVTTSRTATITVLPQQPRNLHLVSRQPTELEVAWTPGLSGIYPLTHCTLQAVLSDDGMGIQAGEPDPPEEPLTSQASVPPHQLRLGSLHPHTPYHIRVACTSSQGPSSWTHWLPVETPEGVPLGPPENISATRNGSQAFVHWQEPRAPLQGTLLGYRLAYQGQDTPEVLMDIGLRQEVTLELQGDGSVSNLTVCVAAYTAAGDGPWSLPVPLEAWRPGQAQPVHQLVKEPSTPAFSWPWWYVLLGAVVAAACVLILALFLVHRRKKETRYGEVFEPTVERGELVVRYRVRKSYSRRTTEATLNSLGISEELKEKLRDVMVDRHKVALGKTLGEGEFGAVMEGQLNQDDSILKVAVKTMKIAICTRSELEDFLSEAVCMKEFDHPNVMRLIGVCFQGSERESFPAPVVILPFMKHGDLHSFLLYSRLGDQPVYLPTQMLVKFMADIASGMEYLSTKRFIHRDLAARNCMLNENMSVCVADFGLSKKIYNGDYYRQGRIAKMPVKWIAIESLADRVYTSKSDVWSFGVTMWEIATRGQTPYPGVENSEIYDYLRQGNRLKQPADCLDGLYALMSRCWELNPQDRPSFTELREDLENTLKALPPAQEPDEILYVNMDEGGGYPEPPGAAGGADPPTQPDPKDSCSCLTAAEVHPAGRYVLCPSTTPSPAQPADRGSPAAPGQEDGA

[10] = molecular target: Tyrosine-protein kinase Mer (Homo sapiens) (UniProt Q12866); assay: Inhibition of recombinant human GST-tagged cMER (578 to 872 residues) expressed in baculovirus infected Sf21 insect cells at 1 uM using biotin as substrate preincubated for 5 mins followed by substrate addition and measured after 30 to 60 mins in presence of ATP by HTRF assay relative to control
[11] = molecular target: T2, High affinity nerve growth factor receptor; assay: as §1, with “system at 1 uM” for “system”, “assay relative to control” for “assay”
Target sequence in this assay (P04629 33-796 limits assumed): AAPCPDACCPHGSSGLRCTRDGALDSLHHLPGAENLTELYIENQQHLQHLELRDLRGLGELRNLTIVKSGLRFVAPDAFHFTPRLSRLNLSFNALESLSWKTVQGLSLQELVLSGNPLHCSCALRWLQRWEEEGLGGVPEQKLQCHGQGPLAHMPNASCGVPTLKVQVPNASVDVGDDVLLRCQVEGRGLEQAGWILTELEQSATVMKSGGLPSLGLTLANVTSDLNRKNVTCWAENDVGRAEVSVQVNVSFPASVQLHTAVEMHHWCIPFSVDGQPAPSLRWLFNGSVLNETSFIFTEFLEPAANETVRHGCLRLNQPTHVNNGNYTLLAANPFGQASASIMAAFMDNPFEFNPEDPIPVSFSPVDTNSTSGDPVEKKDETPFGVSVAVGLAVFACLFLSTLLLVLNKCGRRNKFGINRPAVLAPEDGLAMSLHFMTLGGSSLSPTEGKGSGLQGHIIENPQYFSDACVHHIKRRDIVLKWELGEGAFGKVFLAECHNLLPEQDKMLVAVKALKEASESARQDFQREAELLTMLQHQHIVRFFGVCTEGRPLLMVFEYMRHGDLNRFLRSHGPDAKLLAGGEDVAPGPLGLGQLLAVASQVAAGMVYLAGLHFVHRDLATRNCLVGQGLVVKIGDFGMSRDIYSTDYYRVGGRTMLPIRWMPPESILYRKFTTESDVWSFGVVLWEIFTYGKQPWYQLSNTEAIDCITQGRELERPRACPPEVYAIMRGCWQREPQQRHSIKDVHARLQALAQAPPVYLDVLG

[12] = molecular target: T1, Macrophage-stimulating protein receptor; assay: (§3) Inhibition of recombinant human GST-tagged RON expressed in baculovirus system at 1 uM using biotin as substrate preincubated for 5 mins followed by substrate addition and measured after 30 to 60 mins in presence of ATP by HTRF assay relative to control
[13] = molecular target: Aurora kinase A (Homo sapiens) (UniProt O14965); assay: Inhibition of recombinant full length human His-tagged Aurora A expressed in baculovirus expression system at 1 uM using biotin as substrate preincubated for 5 mins followed by substrate addition and measured after 30 to 60 mins in presence of ATP by HTRF assay relative to control
Chain of Aurora kinase A (Homo sapiens) (O14965 whole entry): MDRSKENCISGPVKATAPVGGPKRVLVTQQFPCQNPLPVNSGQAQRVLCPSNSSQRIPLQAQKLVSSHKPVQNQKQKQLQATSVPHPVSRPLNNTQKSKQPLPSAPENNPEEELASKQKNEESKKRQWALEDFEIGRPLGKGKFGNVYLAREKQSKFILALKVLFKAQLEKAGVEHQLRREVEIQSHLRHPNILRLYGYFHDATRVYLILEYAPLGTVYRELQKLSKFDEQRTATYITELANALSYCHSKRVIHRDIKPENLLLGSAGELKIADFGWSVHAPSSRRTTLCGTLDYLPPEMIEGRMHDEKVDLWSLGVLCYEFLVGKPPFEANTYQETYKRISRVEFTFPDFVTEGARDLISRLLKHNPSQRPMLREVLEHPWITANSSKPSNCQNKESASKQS

[14] = molecular target: Aurora kinase B (Homo sapiens) (UniProt Q96GD4); assay: Inhibition of recombinant full length human His-tagged Aurora B expressed in baculovirus expression system at 1 uM using biotin as substrate preincubated for 5 mins followed by substrate addition and measured after 30 to 60 mins in presence of ATP by HTRF assay relative to control
[15] = molecular target: Tyrosine-protein kinase BTK (Homo sapiens) (UniProt Q06187); assay: Inhibition of recombinant full length human His-tagged BTK expressed in baculovirus expression system at 1 uM using biotin as substrate preincubated for 5 mins followed by substrate addition and measured after 30 to 60 mins in presence of ATP by HTRF assay relative to control
[16] = molecular target: CDK2/Cyclin A2 (Homo sapiens) (UniProt P24941+P20248); assay: Inhibition of recombinant full length human His-tagged CDK2/Cyclin A expressed in baculovirus expression system at 1 uM using biotin as substrate preincubated for 5 mins followed by substrate addition and measured after 30 to 60 mins in presence of ATP by HTRF assay relative to control
[17] = molecular target: Vascular endothelial growth factor receptor 1 (Homo sapiens) (UniProt P17948); assay: as §3, with “FLT1 catalytic domain (781 to 1338 residues)” for “RON”, “baculovirus expression” for “baculovirus”
Chain of Vascular endothelial growth factor receptor 1 (Homo sapiens) (P17948 whole entry, the tested form may be a part): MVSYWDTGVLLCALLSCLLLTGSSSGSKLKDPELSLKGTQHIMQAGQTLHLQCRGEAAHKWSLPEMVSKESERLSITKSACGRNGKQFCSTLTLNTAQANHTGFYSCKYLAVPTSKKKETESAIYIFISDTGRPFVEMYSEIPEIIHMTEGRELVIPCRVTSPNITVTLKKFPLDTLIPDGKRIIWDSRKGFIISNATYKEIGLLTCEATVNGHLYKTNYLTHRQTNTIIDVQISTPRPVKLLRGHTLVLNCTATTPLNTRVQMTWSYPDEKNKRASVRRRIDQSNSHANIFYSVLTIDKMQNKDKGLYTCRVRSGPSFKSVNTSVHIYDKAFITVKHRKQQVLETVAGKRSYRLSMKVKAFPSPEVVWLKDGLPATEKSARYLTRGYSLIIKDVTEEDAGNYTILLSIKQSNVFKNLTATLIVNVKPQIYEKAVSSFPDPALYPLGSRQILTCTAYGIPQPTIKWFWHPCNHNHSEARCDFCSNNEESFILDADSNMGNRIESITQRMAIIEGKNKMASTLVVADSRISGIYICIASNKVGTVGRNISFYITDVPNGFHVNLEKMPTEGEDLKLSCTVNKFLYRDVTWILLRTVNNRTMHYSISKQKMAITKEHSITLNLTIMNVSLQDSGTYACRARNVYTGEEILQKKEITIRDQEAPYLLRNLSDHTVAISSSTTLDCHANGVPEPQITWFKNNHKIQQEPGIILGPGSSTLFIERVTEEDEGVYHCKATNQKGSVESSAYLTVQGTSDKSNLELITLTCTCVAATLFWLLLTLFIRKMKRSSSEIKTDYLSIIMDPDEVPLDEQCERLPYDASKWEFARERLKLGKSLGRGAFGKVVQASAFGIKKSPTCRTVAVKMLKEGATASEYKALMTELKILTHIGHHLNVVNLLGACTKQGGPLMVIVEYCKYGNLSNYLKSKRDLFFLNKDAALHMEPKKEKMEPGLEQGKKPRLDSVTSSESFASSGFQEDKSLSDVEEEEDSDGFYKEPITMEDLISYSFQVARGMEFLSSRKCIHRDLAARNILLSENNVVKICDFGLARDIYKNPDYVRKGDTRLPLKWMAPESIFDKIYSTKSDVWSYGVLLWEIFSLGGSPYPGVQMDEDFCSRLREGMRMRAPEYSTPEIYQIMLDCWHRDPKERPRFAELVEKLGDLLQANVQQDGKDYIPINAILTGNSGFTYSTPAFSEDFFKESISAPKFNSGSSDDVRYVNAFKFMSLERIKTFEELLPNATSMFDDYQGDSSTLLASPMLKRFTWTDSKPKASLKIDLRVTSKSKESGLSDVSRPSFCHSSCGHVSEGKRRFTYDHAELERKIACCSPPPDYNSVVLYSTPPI

[18] = molecular target: Glycogen synthase kinase-3 beta (Homo sapiens) (UniProt P49841); assay: Inhibition of GSK3beta (unknown origin) at 1 uM using biotin as substrate preincubated for 5 mins followed by substrate addition and measured after 30 to 60 mins in presence of ATP by HTRF assay relative to control
[19] = molecular target: Insulin-like growth factor 1 receptor (Homo sapiens) (UniProt P08069); assay: Inhibition of recombinant full length human His-tagged IGF1R expressed in baculovirus expression system at 1 uM using biotin as substrate preincubated for 5 mins followed by substrate addition and measured after 30 to 60 mins in presence of ATP by HTRF assay relative to control
[20] = molecular target: Inhibitor of nuclear factor kappa-B kinase subunit beta (Homo sapiens) (UniProt O14920); assay: Inhibition of recombinant full length human GST-tagged IKBKB expressed in baculovirus expression system at 1 uM using biotin as substrate preincubated for 5 mins followed by substrate addition and measured after 30 to 60 mins in presence of ATP by HTRF assay relative to control
[21] = molecular target: Mast/stem cell growth factor receptor Kit (Homo sapiens) (UniProt P10721); assay: as §2, with “recombinant” for “recombinant full length”, “c-Kit (544” for “AXL (473”
[22] = molecular target: Serine/threonine-protein kinase PLK3 (Homo sapiens) (UniProt Q9H4B4); assay: Inhibition of recombinant full length human GST-tagged PLK3 expressed in baculovirus expression system at 1 uM using biotin as substrate preincubated for 5 mins followed by substrate addition and measured after 30 to 60 mins in presence of ATP by HTRF assay relative to control
[23] = molecular target: Proto-oncogene tyrosine-protein kinase receptor Ret (Homo sapiens) (UniProt P07949); assay: Inhibition of recombinant human GST/His6-tagged RET (658 to 1114 residues) expressed in baculovirus infected Sf9 insect cells at 1 uM using biotin as substrate preincubated for 5 mins followed by substrate addition and measured after 30 to 60 mins in presence of ATP by HTRF assay relative to control
[24] = molecular target: Ribosomal protein S6 kinase alpha-5 (Homo sapiens) (UniProt O75582); assay: Inhibition of recombinant full length human GST-tagged RPS6KA5 expressed in baculovirus expression system at 1 uM using biotin as substrate preincubated for 5 mins followed by substrate addition and measured after 30 to 60 mins in presence of ATP by HTRF assay relative to control

Ratio IC50 [1]: 3230
IC50 [2]: 346 nM
IC50 [3]: 32.9 nM
IC50 [4]: 41.1 nM
half-life [6]: 25.4 h
MRT [7]: 10.8 h
MRT [8]: 32.4 h
inhibition [9]: > 80%
inhibition [10]: > 80%
inhibition [11]: > 80%
inhibition [12]: 50 to 79%
inhibition [13]: < 50%
inhibition [14]: < 50%
inhibition [15]: < 50%
inhibition [16]: < 50%
inhibition [17]: < 50%
inhibition [18]: < 50%
inhibition [19]: < 50%
inhibition [20]: < 50%
inhibition [21]: < 50%
inhibition [22]: < 50%
inhibition [23]: < 50%
inhibition [24]: < 50%
Structure (SMILES): Cn1cc(-c2ccc(F)cc2)c(=O)c2c(Nc3ccc(Oc4ccnc(NC(=O)C5CC5)c4)c(F)c3)nccc21
inhibition at 10 µM [5]: 24.8%
